Consider twelve molecules from patent US20170334899A1, “AMINO-SUBSTITUTED ISOTHIAZOLES” (Bayer Pharma Aktiengesellschaft, priority 2014, published 2017).

Each structure is given as a SMILES string.

What all share (type): cell-based
Test [1] deals with human cervical tumor cell line HeLa (ATCC CCL-2). In words: SAC-Formation - Nocodazole-Induced Assay. The settings on record: Homo sapiens, HeLa, 24 h, HeLa cells, nocodazole 0.1 μg/ml together with test compound, decrease of mitotic cells (phospho-histone H3 Ser10). An excerpt: (§1) The spindle assembly checkpoint assures the proper segregation of chromosomes during mitosis. Upon entry into mitosis, chromosomes begin to condensate which is accompanied by the phosphorylation of histone H3 on serine 10. Dephosphorylation of histone H3 on serine 10 begins in anaphase and ends at early telophase. Accordingly, phosphorylation of histone H3 on serine 10 can be utilized as a marker of cells in mitosis. Nocodazole is a microtubule destabilizing substance. Paclitaxel is a microtubule stabilizing compound. Thus, nocodazole as well as paclitaxel interfere with microtubule dynamics and mobilize the spindle assembly checkpoint. […] The mitotic breakthrough can be detected by the decrease of cells with phosphorylation of histone H3 on serine 10. This decline is used as a marker to determine the capability of compounds of the present invention to induce a mitotic breakthrough. The typical morphological alteration of nuclei with a prematurely completed mitosis after SAC-inhibition can be monitored via image analysis routines supporting those findings.
(§2) The nocodazole and paclitaxel variations were used to focus on compounds that are capable of inhibiting a SAC induced by both microtubule destabilization as well as microtubule stabilization. When SAC inducing agents and compounds are given simultaneously inhibitors that effectively block the SAC during formation or abrogation are identified. When cells are incubated with a SAC inducing agent and the SAC interfering compound is given after a defined time, inhibitors are identified that effectively block SAC abrogation.
(§3) Cultivated cells of the human cervical tumor cell line HeLa (ATCC CCL-2) were plated at a density of 1000 cells/well in a 1536-well microtiter plate in 2 μl PAA Ham's F12 Medium supplemented with 1% (v/v) glutamine, 1% (v/v) penicillin, 1% (v/v) streptomycin and 10% (v/v) fetal calf serum. After incubation overnight at 37° C., 10 μl/well nocodazole at a final concentration of 0.1 μg/ml were added to cells. Test compounds solubilized in dimethyl sulfoxide (DMSO) were added at various concentrations (0 μM, as well as in the range of 0.005 μM-20 μM; the final concentration of the solvent DMSO was 0.5% (v/v)). Cells were incubated for 24 h at 37° C. in the presence of test compounds in combination with nocodazole. Thereafter, cells were fixed in 4% (v/v) paraformaldehyde in phosphate buffered saline (PBS) at 4° C. overnight then permeabilized in 0.1% (v/v) Triton X™ 100 in PBS at room temperature for 20 min and blocked in 0.5% (v/v) bovine serum albumin (BSA) in PBS at room temperature for 15 min. After washing with PBS, 5 μl/well antibody solution (anti-phospho-histone H3 clone 3H10, FITC; Millipore, Cat#16-222; 1:1000 dilution) was added to cells, which were incubated for 2 h at room temperature. Afterwards, cells were washed with PBS and 5 μl/well solution of HOECHST 33342 dye (5 μg/ml) was added to cells and cells were incubated 15 min at room temperature in the dark. Cells were washed twice with PBS then covered with PBS and stored at 4° C. until analysis. Images were acquired with a PERKIN ELMER OPERA™ High-Content Analysis reader. Images were analyzed with image analysis software MetaXpress™ from Molecular devices utilizing the Mitotic Index application module. In this assay both labels HOECHST 33342 and phosphorylated Histone H3 on serine 10 were measured. HOECHST 33342 labels the DNA and is used to count the cell number. The staining of phosphorylated Histone H3 on serine 10 determines the number of mitotic cells. […] Otherwise cells were arrested at G2/M phase of the cell cycle progression. The raw assay data were further analyzed by four-parametric hill equation using Genedata's Assay Analyzer and Condoseo software.

The test system of test [2] is HeLa. In words: Proliferation assay (crystal violet), HeLa. As to conditions: Homo sapiens, HeLa, 96 h, HeLa cells; 4 days incubation; crystal violet staining; read-out: IC50 inhibition of proliferation, HeLa. The protocol: Cultivated tumor cells (cells were ordered from ATCC, except HeLa-MaTu and HeLa-MaTu-ADR, which were ordered from EPO-GmbH, Berlin) were plated at a density of 1000 to 5000 cells/well, depending on the growth rate of the respective cell line, in a 96-well multititer plate in 200 μL of their respective growth medium supplemented 10% fetal calf serum. After 24 hours, the cells of one plate (zero-point plate) were stained with crystal violet (see below), while the medium of the other plates was replaced by fresh culture medium (200 μl), to which the test substances were added in various concentrations (0 μM, as well as in the range of 0.001-10 μM; the final concentration of the solvent dimethyl sulfoxide was 0.5%). The cells were incubated for 4 days in the presence of test substances. Cell proliferation was determined by staining the cells with crystal violet: the cells were fixed by adding 20 μl/measuring point of an 11% glutaric aldehyde solution for 15 minutes at room temperature. After three washing cycles of the fixed cells with water, the plates were dried at room temperature. The cells were stained by adding 100 μl/measuring point of a 0.1% crystal violet solution (pH 3.0). After three washing cycles of the stained cells with water, the plates were dried at room temperature. The dye was dissolved by adding 100 μl/measuring point of a 10% acetic acid solution. Absorbtion was determined by photometry at a wavelength of 595 nm. The change of cell number, in percent, was calculated by normalization of the measured values to the aborbtion values of the zero-point plate (=0%) and the absorbtion of the untreated (0 μm) cells (=100%). The IC50 values were determined by means of a 4 parameter fit.

Test [3] deals with human cervical tumor cell line HeLa (ATCC CCL-2). The test can be described thus: SAC-Formation - Paclitaxel-Induced Assay. The settings on record: Homo sapiens, HeLa, 24 h, HeLa cells, paclitaxel 0.05 μM, test range 0.005 μM-20 μM, read-out: IC50 [mol/l] SAC-Formation - Paclitaxel-Induced Assay.
From the text: as §1, §2
Cultivated cells of the human cervical tumor cell line HeLa (ATCC CCL-2) were plated at a density of 1000 cells/well in a 1536-well microtiter plate in 2 μl PAA
as §3, with “Ham's” for “Cultivated cells of the human cervical tumor cell line HeLa (ATCC CCL-2) were plated at a density of 1000 cells/well in a 1536-well microtiter plate in 2 μl PAA Ham's”, “paclitaxel” for “nocodazole”, “0.05 μM” for “0.1 μg/ml”, “μM -20” for “μM-20”, “paclitaxel.” for “nocodazole.”

For `C#CCN(C)C(=O)c1cccc(NC(=O)c2c(C)nsc2Nc2cnc3ccccc3n2)c1` [Example 62, 3-Methyl-N-{3-[methyl(prop-2-yn-1-yl)carbamoyl]phenyl}-5-(quinoxalin-2-ylamino)-1,2-thiazole-4-carboxamide], the results for the IC50 in test [1], in test [2] and in test [3] were 440 nM, 10 µM and 1500 nM, respectively.

Take `Cc1nsc(Nc2cnc3ccccc3n2)c1C(=O)Nc1cccc(C(=O)NCCCN2CCCC2=O)c1` [Example 60, 3-Methyl-N-(3-{[3-(2-oxopyrrolidin-1-yl)propyl]carbamoyl}phenyl)-5-(quinoxalin-2-ylamino)-1,2-thiazole-4-carboxamide]: the IC50 amounted to 310 nM in test [1], 10 µM in test [2] and 240 nM in test [3].

For `Cc1nsc(Nc2cnc3ccccc3n2)c1C(=O)Nc1cccc(C(=O)N2CCN(c3cccc(F)c3)CC2)c1` [Example 87, N-(3-{[4-(3-Fluorophenyl)piperazin-1-yl]carbonyl}phenyl)-3-methyl-5-(quinoxalin-2-ylamino)-1,2-thiazole-4-carboxamide], the IC50 in test [1] is 390 nM; in test [2], 4.5 µM; in test [3] it was 1500 nM.

For `Cc1nsc(Nc2cnc3ccccc3n2)c1C(=O)Nc1cccc(C(=O)N2CCN(C(=O)N(C)C)CC2)c1` [Example 89, N,N-Dimethyl-4-[3-({[3-methyl-5-(quinoxalin-2-ylamino)-1,2-thiazol-4-yl]carbonyl}amino)benzoyl]piperazine-1-carboxamide], the IC50 came to 2900 nM in test [1], 10 µM in test [2] and 11000 nM in test [3].

As for `CC(=O)Nc1ccccc1NC(=O)c1cccc(NC(=O)c2c(C)nsc2Nc2cnc3ccccc3n2)c1` [Example 84, N-(3-{[2-(Acetylamino)phenyl]carbamoyl}phenyl)-3-methyl-5-(quinoxalin-2-ylamino)-1,2-thiazole-4-carboxamide], the IC50 in test [1] turned out to be 96 nM; in test [2], 10 µM; in test [3], 8400 nM.

In the case of `Cc1nsc(Nc2cnc3ccccc3n2)c1C(=O)Nc1cccc(C(=O)N2CCN(c3ccccc3F)CC2)c1` [Example 78, N-(3-{[4-(2-Fluorophenyl)piperazin-1-yl]carbonyl}phenyl)-3-methyl-5-(quinoxalin-2-ylamino)-1,2-thiazole-4-carboxamide], the IC50 amounted to 470 nM in test [1], 7 µM in test [2] and 2000 nM in test [3].

As to `Cc1nsc(Nc2cnc3ccccc3n2)c1C(=O)Nc1cccc(C(=O)N2CCN(CC(=O)N(C)C)CC2)c1` [Example 92, N-[3-({4-[2-(Dimethylamino)-2-oxoethyl]piperazin-1-yl}-carbonyl)phenyl]-3-methyl-5-(quinoxalin-2-ylamino)-1,2-thiazole-4-carboxamide], the IC50 is 940 nM in test [1], 10 µM in test [2] and 20000 nM in test [3].

As for `Cc1nsc(Nc2cnc3ccccc3n2)c1C(=O)Nc1cccc(C(=O)N2CCN(c3ccccc3C#N)CC2)c1` [Example 80, N-(3-{[4-(2-Cyanophenyl)piperazin-1-yl]carbonyl}phenyl)-3-methyl-5-(quinoxalin-2-ylamino)-1,2-thiazole-4-carboxamide], the IC50 in test [1] worked out at 1800 nM; in test [2] it was 8.3 µM; in test [3], 3500 nM.

For `Cc1nsc(Nc2cnc3ccccc3n2)c1C(=O)Nc1cccc(C(=O)N2CCN(c3cnccn3)CC2)c1` [Example 79, 3-Methyl-N-(3-{[4-(pyrazin-2-yl)piperazin-1-yl]carbonyl}-phenyl)-5-(quinoxalin-2-ylamino)-1,2-thiazole-4-carboxamide], the IC50 in test [1] was 900 nM; in test [2], 10 µM; in test [3], 3700 nM.

Turning to `Cc1nsc(Nc2cnc3ccccc3n2)c1C(=O)Nc1cccc(C(=O)NCC(F)(F)F)c1` [Example 64, 3-Methyl-5-(quinoxalin-2-ylamino)-N-{3-[(2,2,2-trifluoro-ethyl)carbamoyl]phenyl}-1,2-thiazole-4-carboxamide], the IC50 in test [1] was determined as 320 nM; in test [2], 2.7 µM; in test [3] it was 1300 nM.

As for `COCCCNC(=O)c1cccc(NC(=O)c2c(C)nsc2Nc2cnc3ccccc3n2)c1` [Example 85, N-{3-[(3-Methoxypropyl)carbamoyl]phenyl}-3-methyl-5-(quinoxalin-2-ylamino)-1,2-thiazole-4-carboxamide], the IC50 is 18 nM in test [1], 8.9 µM in test [2] and 970 nM in test [3].

For `COC(=O)CCNC(=O)c1cccc(NC(=O)c2c(C)nsc2Nc2cnc3ccccc3n2)c1` [Example 74, Methyl N-[3-({[3-methyl-5-(quinoxalin-2-ylamino)-1,2-thiazol-4-yl]carbonyl}amino)benzoyl]-β-alaninate], the IC50 in test [1] was found to be 1300 nM; in test [2], 10 µM; in test [3] it was 5300 nM.
